Results: patent EP4818187A1, “COMPOUND AND USE THEREOF” (Ganzhou Hemay Pharmaceutical, Co., Ltd, priority 2023, dated 2025)

What was measured:
Type in all cases: cell-based
[1] = tested on: BxPC-3 (human pancreatic cancer in situ); assay: In vitro inhibitory effect against human tumor cells (MTT or SRB); settings: BXPC-3, 72 h, BxPC-3, test method printed MTT (head: SRB), 3 days
[2] = tested on: NCI-H1975 (human non-small cell lung cancer); assay: In vitro inhibitory effect against human tumor cells (MTT); settings: NCI-H1975, 72 h, 3 days
[3] = tested on: HCT116 (human colorectal cancer); assay: as above; settings: HCT-116, 72 h, 3 days
[4] = tested on: NCI-N87 (human gastric cancer cell); assay: as above; settings: NCI-N87, 72 h, 3 days
[5] = tested on: SK-OV-3 (human ovarian cancer); assay: as above; settings: SK-OV-3, 72 h, SK-OV-3, MTT, 3 days
[6] = tested on: Fadu (human pharyngeal squamous cell carcinoma); assay: as above; settings: 72 h, 3 days
[7] = tested on: A375 (human malignant melanoma); assay: In vitro inhibitory effect against human tumor cells (SRB); settings: A-375, 72 h, 3 days
[8] = tested on: SW620 (human colorectal cancer); assay: as above; settings: SW-620, 72 h, 3 days
[9] = tested on: HepG2 (human liver cancer cell); assay: as above; settings: HepG2, 72 h, 3 days
[10] = tested on: HCC827 (human non-small cell lung cancer); assay: as above; settings: HCC827, 72 h, 3 days
[11] = tested on: MDA-MB-468 (human triple-negative breast cancer); assay: as above; settings: MDA-MB-468, 72 h, MDA-MB-468, SRB, 3 days
[12] = tested on: 22RV1 (human prostate cancer); assay: as above; settings: 22Rv1, 72 h, 22RV1, SRB, 3 days
[13] = With addition of βGU (1 µg/well)

For `CC[C@H](C)[C@@H]([C@@H](CC(=O)N1CCC[C@H]1[C@H](OC)[C@@H](C)C(=O)N[C@H](C)[C@@H](OCc1ccc(O[C@@H]2O[C@H](C(=O)[O-])[C@@H](O)[C@H](O)[C@H]2O)cc1OCc1cn(CCCCCC(=O)Nc2ccc(-c3ccc(/N=N/c4ccc5c(S(=O)(=O)[O-])cc(S(=O)(=O)[O-])c(N)c5c4O)c(C)c3)cc2C)nn1)c1ccccc1)OC)N(C)C(=O)[C@@H](NC(=O)[C@H](C(C)C)N(C)C)C(C)C.[Na+].[Na+].[Na+]` [Example compound 2], the IC50 [1, 13] was 3.9 nM, the IC50 ([1]; βGU-free) was 43 nM and the IC50 [2, 13] was 4.3 nM. It also gave an IC50 ([2]; βGU-free) of 114 nM, an IC50 [3, 13] of 6.1 nM and an IC50 ([3]; βGU-free) of 143 nM. It also gave an IC50 [4, 13] of 5.6 nM, an IC50 ([4]; βGU-free) of 81 nM and an IC50 [5, 13] of 6.1 nM. For the same molecule, the IC50 ([5]; βGU-free) was 211 nM, the IC50 [6, 13] was 2.7 nM and the IC50 ([6]; βGU-free) was 38 nM. It also gave an IC50 [7, 13] of 6.7 nM, an IC50 ([7]; βGU-free) of 212 nM and an IC50 [8, 13] of 6.7 nM. For the same molecule, the IC50 ([8]; βGU-free) was 81 nM, the IC50 [9, 13] was 4.3 nM and the IC50 ([9]; βGU-free) was 120 nM. For the same molecule, the IC50 [10, 13] was 3.8 nM, the IC50 ([10]; βGU-free) was 110 nM and the IC50 [11, 13] was 2.7 nM. It also gave an IC50 ([11]; βGU-free) of 24 nM, an IC50 [12, 13] of 7.5 nM and an IC50 ([12]; βGU-free) of 176 nM.
